Legend:
DCAF15/RBM39 = DCAF15/RBM39 (Homo sapiens (Human), UniProt Q14498+Q66K64); experiment: AlphaLISA compound-induced DCAF15-RBM39 ternary complex formation; assay type: binding; conditions: His-tagged DCAF15 complex and biotin-carrying RBM39
Experimental: Example 7: Quantitative Evaluation of Compound-Induced Ternary Complex Formation Using Amplified Luminescent Proximity Homogeneous Assay
Compound-induced DCAF15-RBM39 ternary complex formation was monitored using AlphaLISA® assays (Perkin Elmer, Waltham, MA). Test compounds were first collected in a 384-well microplate (cat. #781280, Grenier Bio-One, Monroe, NC) as 2 mM stocks in 100% dimethyl sulfoxide (DMSO). These stocks were then serially diluted in DMSO by 3-fold into a new plate (cat. #781280, Grenier Bio-One, Monroe, NC) using a Mosquito HTS dispenser (Mosquito® HTS, SPT Labtech, Boston, MA). 0.2 μL of these diluted stocks were then dispensed into a 384-well Optiplate (cat. #6007290, Perkin Elmer, Waltham, MA) in duplicate wells, to assemble the final assay plate consisting of duplicated dose ranges. Separately, a protein mixture consisting of His-tagged DCAF15 complex and biotin-carrying RBM39, each at 408 nM (2.04×), was prepared in 50 mM HEPES, pH 7.5, 100 mM NaCl, 2 mM MgCl2, 0.1% BSA, 2 mM TCEP, 0.05% Tween-20 (dilution buffer). 9.8 μL of this protein mixture was then mixed with the compounds in the assay plate and incubated for one hour at room temperature. Reaction mixtures with no compounds added were included as negative controls, while a His-tagged and biotinylated GST protein was included to track general assay performance. Nickel Chelate AlphaLISA Acceptor beads (cat. #AL108M, Perkin Elmer, MA) and AlphaScreen Streptavidin Donor beads (cat. #6760002, Perkin Elmer, Waltham, MA) were prepared separately in the dilution buffer as 4× stocks (80 ug/ml). The beads were then added to the assay plate sequentially with incubation at room temperature for 1-2 hours after each addition. Signals were recorded using EnVision 2104 Multilabel Plate Reader (Perkin Elmer, Waltham, MA) and titration curves were generated in GraphPad Prism (7.00, GraphPad, La Jolla, CA).

DCAF15 = DCAF15 (Homo sapiens (Human), UniProt Q66K64); experiment: HTRF competition assay, binary interaction with DCAF15; assay type: binding; conditions: competition with Alexa Fluor 647 tracer
DCAF15, sequence (Q66K64 whole entry): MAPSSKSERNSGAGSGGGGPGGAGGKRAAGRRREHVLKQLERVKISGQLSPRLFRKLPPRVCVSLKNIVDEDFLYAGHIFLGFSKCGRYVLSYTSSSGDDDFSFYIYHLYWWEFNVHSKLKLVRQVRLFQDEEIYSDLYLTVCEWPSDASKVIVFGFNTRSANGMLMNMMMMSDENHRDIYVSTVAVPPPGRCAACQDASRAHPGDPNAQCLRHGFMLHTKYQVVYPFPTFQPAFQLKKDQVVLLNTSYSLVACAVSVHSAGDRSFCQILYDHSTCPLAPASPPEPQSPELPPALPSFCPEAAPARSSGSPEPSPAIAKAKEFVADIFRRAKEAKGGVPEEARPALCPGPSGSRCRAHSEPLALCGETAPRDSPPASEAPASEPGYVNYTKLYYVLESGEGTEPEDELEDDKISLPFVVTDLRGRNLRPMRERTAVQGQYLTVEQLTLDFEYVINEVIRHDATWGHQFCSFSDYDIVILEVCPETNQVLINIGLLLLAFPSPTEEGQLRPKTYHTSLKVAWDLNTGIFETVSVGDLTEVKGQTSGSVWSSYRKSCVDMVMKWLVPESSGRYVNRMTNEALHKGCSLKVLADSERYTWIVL
DCAF15, sequence (Q16531 whole entry partner): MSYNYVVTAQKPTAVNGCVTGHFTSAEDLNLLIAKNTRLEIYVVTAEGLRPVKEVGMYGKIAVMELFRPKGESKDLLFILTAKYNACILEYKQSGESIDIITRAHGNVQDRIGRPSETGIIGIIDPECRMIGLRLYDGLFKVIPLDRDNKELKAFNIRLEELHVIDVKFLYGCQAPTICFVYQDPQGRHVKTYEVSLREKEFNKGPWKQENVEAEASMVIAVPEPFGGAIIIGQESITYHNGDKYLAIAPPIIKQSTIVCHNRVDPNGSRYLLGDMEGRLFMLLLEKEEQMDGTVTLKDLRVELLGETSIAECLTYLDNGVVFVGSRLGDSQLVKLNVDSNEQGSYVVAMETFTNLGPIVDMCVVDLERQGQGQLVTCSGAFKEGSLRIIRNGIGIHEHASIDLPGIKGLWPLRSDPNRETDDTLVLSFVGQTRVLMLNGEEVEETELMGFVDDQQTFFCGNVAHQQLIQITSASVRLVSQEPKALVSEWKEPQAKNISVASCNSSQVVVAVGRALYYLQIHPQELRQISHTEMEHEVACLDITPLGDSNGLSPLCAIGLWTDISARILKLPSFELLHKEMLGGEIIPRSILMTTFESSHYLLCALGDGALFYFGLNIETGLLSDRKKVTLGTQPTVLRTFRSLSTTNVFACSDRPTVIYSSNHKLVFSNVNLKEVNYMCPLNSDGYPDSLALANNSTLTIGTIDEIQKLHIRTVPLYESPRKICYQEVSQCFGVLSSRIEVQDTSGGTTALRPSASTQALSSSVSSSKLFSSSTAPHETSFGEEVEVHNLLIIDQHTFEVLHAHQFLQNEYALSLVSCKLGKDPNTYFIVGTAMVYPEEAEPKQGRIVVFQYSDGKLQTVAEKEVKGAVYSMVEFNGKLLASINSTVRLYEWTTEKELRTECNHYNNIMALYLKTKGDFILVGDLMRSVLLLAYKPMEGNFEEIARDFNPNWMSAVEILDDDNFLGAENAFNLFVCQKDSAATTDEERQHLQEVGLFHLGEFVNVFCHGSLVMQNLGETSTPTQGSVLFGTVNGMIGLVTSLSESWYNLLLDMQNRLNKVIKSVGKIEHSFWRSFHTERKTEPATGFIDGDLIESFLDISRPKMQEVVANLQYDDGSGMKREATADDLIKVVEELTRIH
Experimental: Example 8: Measurement of Binary Interaction Between Compounds and DCAF15 Using Homogeneous Time Resolved Fluorescence (HTRF)
DCAF15 interactions with test compounds were monitored using HTRF competition assays (Cisbio, Bedford, MA). Test compounds were first collected in a 384-well microplate (cat. #781280, Grenier Bio-One, Monroe, NC) as 10 mM stocks in 100% dimethyl sulfoxide (DMSO). A second stock plate (cat. #781280, Grenier Bio-One, Monroe, NC) was prepared through 3-fold serial dilution in DMSO of the afore-mentioned stocks using a Mosquito HTS dispenser (mosquito@ HTS, SPT Labtech, Boston, MA). 0.2 μL of these diluted stocks were then dispensed into a 384-well Optiplate (cat. #6007290, Perkin Elmer, Waltham, MA) in duplicate wells, to assemble the assay plate. The tracer molecule containing an Alexa Fluor 647 probe was prepared in 25 mM HEPES pH 7.5, 100 mM NaCl, 0.1 mg/ml BSA, 0.005% Tween 20, 0.5 mM TCEP (dilution buffer) to 612 nM (2.04×). Separately, His-tagged DCAF15 complex was prepared at 32 nM (4×) in the dilution buffer, and mAb Anti-6His-Eu cryptate Gold (cat. #61H12KLA, Cisbio, Bedford, MA) at 4× dilution in the detection buffer (cat. #61DB9RDF, Cisbio, Bedford, MA). These two solutions were mixed and incubated for 15 min at room temperature. 9.8 μL of the tracer solution and 10 μL of the DCAF15/mAb Anti-6His-Eu cryptate Gold mixture were added sequentially to each well in the assay plate. Reaction mixtures with no DCAF15 added were included as positive controls. The final mixture was incubated for an hour at room temperature and spun down briefly before data collection at 615 nm and 666 nm using EnVision 2104 Multilabel Plate Reader (Perkin Elmer, Bedford, MA). Binding was estimated based on ratiometric analysis and titration curves were generated in GraphPad Prism (7.00, GraphPad, La Jolla, CA).

DCAF15/RBM39, sequence (Q66K64 whole entry, species assumed): as the sequence (Q66K64 whole entry) above
DCAF15/RBM39, sequence (Q14498 whole entry, species assumed): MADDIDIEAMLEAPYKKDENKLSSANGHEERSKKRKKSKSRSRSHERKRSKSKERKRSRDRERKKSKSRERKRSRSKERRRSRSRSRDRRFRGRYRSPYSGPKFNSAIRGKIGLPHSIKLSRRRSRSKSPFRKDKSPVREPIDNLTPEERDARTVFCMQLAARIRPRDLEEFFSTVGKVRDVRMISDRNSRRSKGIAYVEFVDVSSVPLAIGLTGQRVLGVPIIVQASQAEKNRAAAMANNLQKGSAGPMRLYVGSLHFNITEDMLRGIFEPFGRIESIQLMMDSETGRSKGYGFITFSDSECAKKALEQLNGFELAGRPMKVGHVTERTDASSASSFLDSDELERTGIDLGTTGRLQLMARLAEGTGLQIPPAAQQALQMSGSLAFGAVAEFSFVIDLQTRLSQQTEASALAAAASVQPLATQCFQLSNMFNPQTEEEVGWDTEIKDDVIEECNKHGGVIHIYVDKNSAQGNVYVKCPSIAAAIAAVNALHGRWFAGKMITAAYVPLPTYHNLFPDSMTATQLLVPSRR
DCAF15/RBM39, sequence (Q16531 whole entry partner, species assumed): as the sequence (Q16531 whole entry partner) above

Structure (SMILES) | EC50 (DCAF15/RBM39) [µM] | IC50 (DCAF15) [µM]
Cn1cc(S(=O)(=O)Nc2ccc(Cl)c3c(Cl)c[nH]c23)c2ccccc21 [Compound 2] | 1 to 10 | –
O=S(=O)(Nc1ccc(Cl)c2c(Cl)c[nH]c12)c1cc2cc(F)ccc2s1 [Compound 5] | 1 to 10 | –
O=C1CCc2ccc(S(=O)(=O)Nc3ccc(Cl)c4c(Cl)c[nH]c34)cc21 [Compound 7] | ≤ 1 | 1 to 10
CC(=O)N[C@H]1Cc2ccc(S(=O)(=O)Nc3ccc(Cl)c4c(Cl)c[nH]c34)cc2C1 [Compound 8] | ≤ 1 | 1 to 10
CC1(C)Cc2cc(S(=O)(=O)Nc3ccc(Cl)c4c(Cl)c[nH]c34)ccc2O1 [Compound 9] | 1 to 10 | > 100
O=C1OCc2ccc(S(=O)(=O)Nc3ccc(Cl)c4c(Cl)c[nH]c34)cc21 [Compound 10] | ≤ 1 | 1 to 10
O=S(=O)(Nc1ccc(Cl)c2c(Cl)c[nH]c12)c1ccc2occc2c1 [Compound 11] | ≤ 1 | 1 to 10
CC(=O)N1CCc2cc(S(=O)(=O)Nc3ccc(Cl)c4c(Cl)c[nH]c34)ccc21 [Compound 12] | 1 to 10 | 1 to 10
O=C1Nc2ccc(S(=O)(=O)Nc3ccc(Cl)c4c(Cl)c[nH]c34)cc2C1=O [Compound 14] | 1 to 10 | 1 to 10
CC(=O)N1Cc2ccc(S(=O)(=O)Nc3ccc(Cl)c4c(Cl)c[nH]c34)cc2C1 [Compound 15] | 1 to 10 | 1 to 10
CN1C(=O)c2ccc(S(=O)(=O)Nc3ccc(Cl)c4c(Cl)c[nH]c34)cc2C1=O [Compound 16] | 1 to 10 | 1 to 10
O=S(=O)(Nc1ccc(Cl)c2c(Cl)c[nH]c12)c1ccc2c(c1)OC(F)(F)O2 [Compound 18] | ≤ 1 | 1 to 10
Cn1c(=O)n(C)c2cc(S(=O)(=O)Nc3ccc(Cl)c4c(Cl)c[nH]c34)ccc21 [Compound 19] | 1 to 10 | 10 to 100
O=c1[nH]c2ccc(S(=O)(=O)Nc3ccc(Cl)c4c(Cl)c[nH]c34)cc2o1 [Compound 21] | 1 to 10 | –
Cn1c(=O)oc2cc(S(=O)(=O)Nc3ccc(Cl)c4c(Cl)c[nH]c34)ccc21 [Compound 22] | ≤ 1 | 1 to 10
O=C1NS(=O)(=O)c2ccc(S(=O)(=O)Nc3ccc(Cl)c4c(Cl)c[nH]c34)cc21 [Compound 23] | 1 to 10 | 1 to 10
O=S(=O)(Nc1ccc(Cl)c2c(Cl)c[nH]c12)c1ccc2c(c1)CCCC2 [Compound 24] | 1 to 10 | > 100
O=S(=O)(Nc1ccc(Cl)c2c(Cl)c[nH]c12)c1ccc2ccccc2c1F [Compound 25] | ≤ 1 | 1 to 10
O=S(=O)(Nc1ccc(Cl)c2c(Cl)c[nH]c12)c1ccc2c(Cl)ccc(Cl)c2c1 [Compound 28] | 10 to 100 | –
O=S(=O)(Nc1ccc(Cl)c2c(Cl)c[nH]c12)c1ccc2c(c1)CC[C@@H](C(F)F)O2 [Compound 29] | 1 to 10 | 10 to 100
O=C1CCOc2ccc(S(=O)(=O)Nc3ccc(Cl)c4c(Cl)c[nH]c34)cc21 [Compound 30] | 1 to 10 | –
O=C1OCCc2ccc(S(=O)(=O)Nc3ccc(Cl)c4c(Cl)c[nH]c34)cc21 [Compound 31] | ≤ 1 | 1 to 10
O=C(N1CCc2ccc(S(=O)(=O)Nc3ccc(Cl)c4c(Cl)c[nH]c34)cc2C1)C(F)(F)F [Compound 33] | ≤ 1 | –
O=C1COc2ccc(S(=O)(=O)Nc3ccc(Cl)c4c(Cl)c[nH]c34)cc2N1 [Compound 39] | 1 to 10 | –
O=C1COc2cc(S(=O)(=O)Nc3ccc(Cl)c4c(Cl)c[nH]c34)ccc2N1 [Compound 40] | ≤ 1 | –
Cn1c(=O)c2cc(S(=O)(=O)Nc3ccc(Cl)c4c(Cl)c[nH]c34)ccc2n(C)c1=O [Compound 43, N-(3,4-dichloro-1H-indol-7-yl)-1,3-dimethyl-2,4-dioxo-1,2,3,4-tetrahydroquinazoline-6-sulfonamide] | ≤ 1 | –
CC(C)(C)OC(=O)N1CCCc2cc(S(=O)(=O)Nc3ccc(Cl)c4c(Cl)c[nH]c34)ccc2C1 [Compound 46] | 1 to 10 | –
